These results are taken from patent US20220143152A1, “USE OF PEPTIDE DERIVED FROM H-REV107” (GJMEDI INC., priority 2019, published 2022).

The subject of assay [1] is NCI-H23 (lung cancer) cell-line. The assay can be described thus: Cancer inhibitory activity, CCK-8. Type of assay: cell-based. The note with it: NCI-H23, 72 hours treatment. How it is done:
(§1) Cancer cell-lines used in this example were SW480 (colon cancer), AsPC-1 (pancreatic cancer), NCI-H23 (lung cancer), NCI-H460 (lung cancer) and HCT116 (colon cancer) cell-lines. Specifically, for HCT116 and NCI-H460 cell-lines, 100 μl of a culture medium containing 2×10^3 cells per well; for SW480 and NCI-H23 cell-lines, 100 μl of a culture medium containing 5×10^3 cells per well; and, for AsPC-1 cell-line, 100 μl of a culture solution containing 1×10^4 cells per well, respectively, were seeded. The seeded cells were cultured for 24 hours for adhesion to the well, and the medium was changed. […] After completion of the culture, a cell counting kit-8 (CCK-8) solution (10 μl/well) was added, and the cells were further cultured for 4 hours in a CO2 incubator maintained at 37° C.

For assay [2], the system named is NCI-H460 (lung cancer) cell-line. Kind of assay: Cancer inhibitory activity, CCK-8. The note with it: NCI-H460, 72 hours treatment. Type of assay: cell-based. How it is done:
as §1

Assay [3] deals with HCT116 (colon cancer) cell-line. Kind of assay: Cancer inhibitory activity, CCK-8. The format is cell-based. The note with it: HCT-116, 72 hours treatment. How it is done:
as §1

The subject of assay [4] is SW480 (colon cancer) cell-line. The format is cell-based. Conditions: 72 h. How it is done:
as §1

The subject of assay [5] is AsPC-1 (pancreatic cancer) cell-line. The format is cell-based. The note with it: 72 h. How it is done:
as §1

In a further assay the target is mutant KRAS G12V (Homo sapiens, UniProt P01116, G12V). The assay can be described thus: GTP binding assay. The format is biochemical. Conditions: in the presence of H-REV107 protein, FIG. 3a. How it is done: The prepared mixture was incubated with a binding solution (50 mM Hepes (pH 7.5), 100 mM NaCl, 2 mM MgCl2, 1 mM EDTA and 1 mM DTT). The culture was passed through Ni-NTA resin and then bound at 4° C. […] GTP (2,500 cpm/pmol) and […] To terminate binding, a washing buffer (20 mM Tris-HCl (pH 7.4), 100 mM NaCl and 2 mM MgCl2) was added. After washing, the bound protein was eluted using 200 mM imidazole. In this example, bovine serum albumin was used as a negative control. Radioactive GTP bound to the protein was quantified by a liquid scintillation counter, and the results thereof are shown in FIG. 3.

Regarding `CC(C)C[C@H](N)C(=O)N[C@@H](Cc1ccc(O)cc1)C(=O)N[C@@H](CC(=O)O)C(=O)N[C@H](C(=O)N[C@@H](C)C(=O)NCC(=O)N[C@@H](CO)C(=O)N[C@@H](CC(=O)O)C(=O)N[C@@H](CCCCN)C(=O)N[C@@H](Cc1ccc(O)cc1)C(=O)O)C(C)C` [CY101], the GI50 entry was “millimolar (mM) range” in assay [1]; “millimolar (mM) range” in assay [2]; “millimolar (mM) range” in assay [3]; 358 µM in assay [4]; 417 µM in assay [5].

B1: H-REV107 protein: H-REV107 (HRAS-like suppressor 3), a growth inhibitory RAS target gene product (protein, UniProt P53816 1-162, looked up)
Phospholipase A and …: MRAPIPEPKPGDLIEIFRPFYRHWAIYVGDGYVVHLAPPSEVAGAGAASVMSALTDKAIVKKELLYDVAGSDKYQVNNKHDDKYSPLPCSKIIQRAEELVGQEVLYKLTSENCEHFVNELRYGVARSDQVRDVIIAASVAGMGLAAMSLIGVMFSRNKRQKQ
On to B1, for which, in the assay with mutant KRAS G12V, the “radioactive GTP binding activity of the mutant KRAS G12V” value is given as “somewhat reduced”.
